Data: US12077531B2, “Imidazopyridinone compound” (KISSEI PHARMACEUTICAL CO., LTD., priority 2018, dated 2024)

Target: human PHD2184-418 (Homo sapiens (Human), UniProt Q9GZT9)
Test: PHD2 inhibitory test (fluorescence polarization, binding between PHD2 and HIF-1α)
Details: for IC50: human PHD2184-418, FITC-labeled HIF-1α556-574, 2 μM 2-oxoglutarate, 37° C. 60 minutes
Description: Test Example 1 PHD2 Inhibitory Test
(1) Expression and Preparation of Human PHD2184-418
Human PHD2184-418 containing amino acid residues 184 to 418 of the protein represented by CAC42509 (GenBank accession ID) was expressed and prepared by the following method.
An expression construct of human PHD2184-418 containing N-terminal histidine tag was introduced into pET-30a (+) vector, and the sequence was confirmed. This vector was introduced into BL21 (DE3) strain and cultured at 37° C. in LB medium containing antibiotics. After culturing, a cell lysis solution was added to the cells, and then the cells were disrupted by sonication. The disrupted suspension was centrifuged and the supernatant was purified by Ni column to give human PHD2184-418.
Human HIF-1α556-574 (FITC-labeled HIF-1α556-574), containing N-terminal FITC-Ahx, containing amino acid residues 556 to 574 (partial peptide) of HIF-1α was used as a substrate. Using FITC-labeled HIF-1α556-574, the competitive inhibition between 2-oxoglutarate and test compounds (PHD inhibitor) was evaluated based on the change in fluorescence polarization by the following method.
An enzyme (human PHD2184-418) and the substrate were diluted with an assay buffer (pH 7.4) containing 10 mM HEPES, 150 mM NaCl, 10 μM MnCl2-4H2O, 2 μM 2-oxoglutarate and 0.05% Tween-20. Test compounds were diluted with DMSO. Test compounds and human PHD2184-418 was added to the 384-well plate (Corning, black, opaque bottom) in advance. The reaction was started by the addition of FITC-labeled HIF-1α556-574. After incubating at 37° C. for 60 minutes, fluorescence polarization (excitation wavelength: 470 nm, fluorescence wavelength: 530 nm) was measured by PHERAstar FSX (BMG Labtech). Fluorescence polarization of each well was measured, and human PHD2 binding inhibitory activity of test compounds was calculated based on the value of test compound-free group.

Chain of human PHD2184-418 (Q9GZT9 184-418): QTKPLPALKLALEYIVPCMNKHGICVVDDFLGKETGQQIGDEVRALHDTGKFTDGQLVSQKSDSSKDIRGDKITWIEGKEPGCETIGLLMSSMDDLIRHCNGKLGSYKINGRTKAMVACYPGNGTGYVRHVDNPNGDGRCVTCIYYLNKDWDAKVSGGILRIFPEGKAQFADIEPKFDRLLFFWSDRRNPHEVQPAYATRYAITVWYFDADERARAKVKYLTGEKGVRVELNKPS

Row | SMILES | IC50 | inhibition at 100 µM (read-out: inhibition rate at the compound concentration of 100 μM (numerals with *), compound concentration 100 μM)
1 | Cn1c(C(=O)O)cnc1CN1CCC(C)(n2c(=O)n(-c3ccc(-c4ccccc4)cc3)c3cccnc32)CC1 [Example 23, 2-((4-(1-([1,1′-Biphenyl]-4-yl)-2-oxo-1,2-dihydro-3H-imidazo[4,5-b]pyridin-3-yl)-4-methylpiperidin-1-yl)methyl)-1-methyl-1H-imidazole-5-carboxylic acid] | 5500 nM | 
2 | COc1cnc2c(c1)n(-c1ccc(-c3ccc(C(=O)O)cc3)cc1)c(=O)n2[C@H]1CCN(Cc2ncc(C(=O)O)n2C)C1 [Example 24, (S)-2-((3-(1-(4′-Carboxy-[1,1′-biphenyl]-4-yl)-6-methoxy-2-oxo-1,2-dihydro-3H-imidazo[4,5-b]pyridin-3-yl)pyrrolidin-1-yl)methyl)-1-methyl-1H-imidazole-5-carboxylic acid] | 110 nM | 
3 | Cn1c(C(=O)O)cnc1CN1C[C@@H](F)[C@H](n2c(=O)n(-c3ccc(-c4ccc(C(=O)O)cc4)cc3)c3cccnc32)C1 [Example 25, 2-(((3R,4R)-3-(1-(4′-Carboxy-[1,1′-biphenyl]-4-yl)-2-oxo-1,2-dihydro-3H-imidazo[4,5-b]pyridin-3-yl)-4-fluoropyrrolidin-1-yl)methyl)-1-methyl-1H-imidazole-5-carboxylic acid] | 110 nM | 
4 | Cn1c(C(=O)O)cnc1CN1CC[C@H](n2c(=O)n(-c3ccc(-c4ccc(C(=O)O)cc4)cc3)c3cc(C(F)(F)F)cnc32)C1 [Example 26, (S)-2-((3-(1-(4′-Carboxy-[1,1′-biphenyl]-4-yl)-2-oxo-6-(trifluoromethyl)-1,2-dihydro-3H-imidazo[4,5-b]pyridin-3-yl)pyrrolidin-1-yl)methyl)-1-methyl-1H-imidazole-5-carboxylic acid] | 130 nM | 
5 | Cc1cnc2c(c1)n(-c1ccc(-c3ccc(C(=O)O)cc3)cc1)c(=O)n2[C@H]1CCN(Cc2ncc(C(=O)O)n2C)C1 [Example 27, (S)-2-((3-(1-(4′-Carboxy-[1,1′-biphenyl]-4-yl)-6-methyl-2-oxo-1,2-dihydro-3H-imidazo[4,5-b]pyridin-3-yl)pyrrolidin-1-yl)methyl)-1-methyl-1H-imidazole-5-carboxylic acid] | 110 nM | 

Continued, values first:

Row | IC50 | inhibition at 100 µM (read-out: inhibition rate at the compound concentration of 100 μM (numerals with *), compound concentration 100 μM) | SMILES
6 | 28200 nM |  | Cc1cc(-c2ccccc2)ccc1-n1c(=O)n([C@H]2CCN(Cc3nccn3C)C2)c2ncccc21 [Example 28, (S)-3-(1-((1-Methyl-1H-imidazol-2-yl)methyl)pyrrolidin-3-yl)-1-(3-methyl-[1,1′-biphenyl]-4-yl)-1,3-dihydro-2H-imidazo[4,5-b]pyridin-2-one]
7 | 2090 nM |  | Cc1ccccc1-c1ccc(-n2c(=O)n([C@H]3CCN(Cc4nccn4C)C3)c3ncccc32)cc1 [Example 29, (S)-3-(1-((1-Methyl-1H-imidazol-2-yl)methyl)pyrrolidin-3-yl)-1-(2′-methyl-[1,1′-biphenyl]-4-yl)-1,3-dihydro-2H-imidazo[4,5-b]pyridin-2-one]
8 | 3480 nM |  | Cc1cc(-c2ccccc2)ccc1-n1c(=O)n([C@@H]2CCN(Cc3nccn3C)C2)c2ncccc21 [Example 30, (R)-3-(1-((1-Methyl-1H-imidazol-2-yl)methyl)pyrrolidin-3-yl)-1-(3-methyl-[1,1′-biphenyl]-4-yl)-1,3-dihydro-2H-imidazo[4,5-b]pyridin-2-one]
9 | 12400 nM |  | Cc1cccnc1CN1CC[C@H](n2c(=O)n(-c3ccc(-c4ccc(F)cc4)cc3)c3cccnc32)C1 [Example 31, (S)-1-(4′-Fluoro-[1,1′-biphenyl]-4-yl)-3-(1-((3-methylpyridin-2-yl)methyl)pyrrolidin-3-yl)-1,3-dihydro-2H-imidazo[4,5-b]pyridin-2-one]
10 |  | 41% | Cc1cccnc1CN1CC[C@H](n2c(=O)n(-c3ccc(-c4ccccc4C(F)(F)F)cc3)c3cccnc32)C1 [Example 33, (S)-3-(1-((3-Methylpyridin-2-yl)methyl)pyrrolidin-3-yl)-1-(2′-(trifluoromethyl)-[1,1′-biphenyl]-4-yl)-1,3-dihydro-2H-imidazo[4,5-b]pyridin-2-one]
